Data set [1] deals with T1, cellular DNA polymerase β (Bos taurus, UniProt Q27958).
T1 construct: purified from calf thymus; from tissue; host or cells: calf thymus
Description: Effect on cellular DNA polymerase β. Format: biochemical. Conditions: enzyme purified from calf thymus; read-out: ID50 cellular polymerase β. The source says:
(§1) The strong inhibiting effect of 3'-fluoro-substituted deoxynucleotides against HIV-reverse transcriptase can be utilized therapeutically only if the cellular DNA polymerases, especially the DNA polymerase α which is required for the replication of the cellular DNA, remain substantially unaffected. […] The ID50 values for the DNA polymerase β responsible for cellular DNA repair vary between 1,8-15 μm. Both enzymes cellular DNA polymerase α and β were purified from calf thymus and tested according to the method of E. Matthes et al., Biomed. Biochim. Acta 44. K63 (1985).

Data set [2] deals with RLV-associated reverse transcriptase. Description: Inhibition of RLV-associated reverse transcriptase. The data set is classed as biochemical, Rauscher murine leukemia virus.
Data set [3] deals with T2, cellular DNA polymerase α (Bos taurus, UniProt A0AAA9TD94).
T2 construct: purified from calf thymus; from tissue; host or cells: calf thymus
T2 sequence (A0AAA9TD94 1-1441): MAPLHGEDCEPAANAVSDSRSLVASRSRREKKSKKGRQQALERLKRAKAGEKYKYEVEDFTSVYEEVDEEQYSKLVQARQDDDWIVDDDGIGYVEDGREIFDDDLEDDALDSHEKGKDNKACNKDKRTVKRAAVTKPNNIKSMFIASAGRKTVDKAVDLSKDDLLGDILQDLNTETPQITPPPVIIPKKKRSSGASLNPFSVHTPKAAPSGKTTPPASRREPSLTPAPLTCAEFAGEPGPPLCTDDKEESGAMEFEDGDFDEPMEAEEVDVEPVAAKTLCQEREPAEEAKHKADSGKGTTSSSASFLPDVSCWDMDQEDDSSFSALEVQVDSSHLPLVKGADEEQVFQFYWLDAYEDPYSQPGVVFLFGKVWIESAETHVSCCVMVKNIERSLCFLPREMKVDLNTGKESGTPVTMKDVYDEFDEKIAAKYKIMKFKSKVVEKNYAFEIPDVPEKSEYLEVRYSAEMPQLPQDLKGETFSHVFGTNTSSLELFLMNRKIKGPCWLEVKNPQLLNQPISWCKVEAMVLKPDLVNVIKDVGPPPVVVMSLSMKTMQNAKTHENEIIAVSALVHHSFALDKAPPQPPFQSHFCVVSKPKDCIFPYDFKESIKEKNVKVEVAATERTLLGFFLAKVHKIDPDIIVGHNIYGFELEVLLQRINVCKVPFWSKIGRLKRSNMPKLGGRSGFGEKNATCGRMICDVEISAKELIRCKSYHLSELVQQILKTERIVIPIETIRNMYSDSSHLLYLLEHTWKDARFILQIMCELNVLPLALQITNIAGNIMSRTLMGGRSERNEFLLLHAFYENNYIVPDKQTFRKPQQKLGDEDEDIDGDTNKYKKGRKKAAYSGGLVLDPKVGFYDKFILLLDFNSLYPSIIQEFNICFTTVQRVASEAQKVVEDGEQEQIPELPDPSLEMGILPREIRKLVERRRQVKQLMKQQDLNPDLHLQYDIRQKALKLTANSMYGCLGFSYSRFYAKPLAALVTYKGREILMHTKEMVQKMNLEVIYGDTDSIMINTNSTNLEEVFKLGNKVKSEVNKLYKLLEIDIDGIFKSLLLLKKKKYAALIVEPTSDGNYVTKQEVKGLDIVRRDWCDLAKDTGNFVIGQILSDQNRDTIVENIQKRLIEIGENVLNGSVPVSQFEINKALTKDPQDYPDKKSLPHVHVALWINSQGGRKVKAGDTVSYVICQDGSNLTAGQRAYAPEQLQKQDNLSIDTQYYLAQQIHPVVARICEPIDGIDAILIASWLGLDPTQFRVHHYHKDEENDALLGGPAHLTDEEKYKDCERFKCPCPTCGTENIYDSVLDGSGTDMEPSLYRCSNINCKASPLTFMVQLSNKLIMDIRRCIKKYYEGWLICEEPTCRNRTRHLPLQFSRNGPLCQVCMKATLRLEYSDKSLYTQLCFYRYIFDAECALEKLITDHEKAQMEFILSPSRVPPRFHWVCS
Put plainly: Effect on cellular DNA polymerase α. The following applies: enzyme purified from calf thymus; read-out: ID50 cellular polymerase α. Format: biochemical.
Text: as §1

Data set [4] concerns the target T3, HIV-associated reverse transcriptase (HIV-RT) (Human immunodeficiency virus type 1 group M subtype B, UniProt P04585).
T3 construct: HIV-associated reverse transcriptase (HIV-RT)
Description: Inhibition of HIV-associated reverse transcriptase (polymerization of artificial templates). The data set is classed as biochemical. The source says: At first the triphosphates of some compounds according to formula I were investigated for their ability to inhibit the polymerization of artificial templates (such as polyAoligodT and polyColigodG) catalyzed by HIV-associated reverse transcriptase (HIV-RT) according to the method described by A. D. Hoffman et al., Virology 147, 326, 1985. […] FdTTP, FdUTP and FdGTP are among the strongest inhibitors found so far for HIV-RT. In comparison the ID50 for 3'-azidothymidinetriphosphate was estimated under our conditions to be about […].

A further data set relates to HIV. Put plainly: Inhibition of the cytopathic effect of HIV on MT-4 cells. The data set is classed as cell-based. Conditions: Human immunodeficiency virus 1, MT4, 144 h; MT-4 cells, 6 days of incubation; read-out: 50% antiviral dose (ED50). How it is done:
(§2) Under in vitro conditions immortalized T-lymphocytes can be killed within few days by the cytopathic effect of HIV. […] For this purpose about 20,000 MT-4 cells (Harada et al. Science 229, 563 (1985)) Were infected with HIV (titer: 0.04 m.o.i.) and incubated in the presence or absence of varying concentrations of compounds according to formula I, with 10% fetal calf serum (FCS) in 200 μl RPMI medium. After 6 days of incubation the viable cells were counted that were excluded from trypan blue staining.
Background: Cytopathic effects are the visible damage that an infection or toxin causes in cultured cells.

The next data set can be described thus: in vitro. Conditions: human, mt-4 cells. The protocol:
as §2

The subject of data set [5] is K-37 immortalized T-cells. Description: Inhibition of proliferation of K-37 cells. The data set is classed as cell-based. Conditions: Homo sapiens, T-cell; dose required to reduce the cell number by 50%, K-37; read-out: CD50 (the source's name). The source says: (§3) Originally FTdR was developed as a cytostatic agent (P. Langen et al., Acta biol. med. Germ. 23, 759, 1969; and U.S. Pat. No. 3,775,397) and, therefore, its cytostatic efficacy has been examined in extensive prior studies. […] Ehrlich-mouse-ascites-carcinoma cells (EMAC) represents an exception to that finding, and this is probably connected to its high capability of phosphorylation of FTdR, which is 10 times higher than in human cells. The fast reversibility of the cytostatic effects on EMAC cells was regarded as a special property of this compound (P. Langen et al., Europ. J. Cancer. 14. 349, 1978). The antiproliferative effect of FTdR and FddUrd, and in comparison thereto of N3 -TdR were tested on human cell lines with regard to a possible use in humans. […] When FTdR is compared to N3 -TdR. The effects are very similar, however somewhat lower in each case for N3 -TdR than for FTdR.
(§4) CD50 : inhibitory dose required to reduce the cell number by 50%

In data set [6] the test system is K-562 acute myeloic leukemia. Put plainly: Inhibition of proliferation of K-562 cells. The data set is classed as cell-based. The following applies: Homo sapiens, K562; dose required to reduce the cell number by 50%, K-562; read-out: CD50 (the source's name).
Text: as §3, §4

The test system of data set [7] is REH acute lymphatic leukemia. Description: Inhibition of proliferation of REH cells. The data set is classed as cell-based. Conditions: Homo sapiens, dose required to reduce the cell number by 50%, read-out: CD50 (the source's name).
Text: as §3, §4

The subject of the next data set is H9 immortalized T-cells. Description: Inhibition of proliferation of H9 cells. The data set is classed as cell-based. Conditions: Homo sapiens, T-cell; dose required to reduce the cell number by 50%, H9; read-out: CD50 (the source's name).
Text: as §3, §4

Structures are written as SMILES. A value given as a limit tells only on which side of the number the result lay.

These results are taken from patent US5153180A, “Fluorinated nucleosides and process for treating retrovirus infections therewith” (priority 1990, dated 1992).

In the case of `Cc1cn([C@H]2C[C@H](F)[C@@H](COP(=O)(O)OP(=O)(O)OP(=O)(O)O)O2)c(=O)[nH]c1=O` [FdTTP, 2'-3'-dideoxy-3'-fluorothymidine-5'-triphosphate], the IC50 in data set [1] was 2200 nM; in data set [3] it was greater than 200 µM; in [4] (read-out: ID50 HIV-associated reverse transcriptase), 50 nM. The “ID50 RLV-associated reverse transcriptase” value in data set [2] was 0.5 µM. For the same compound, in [2] (ratio of ID50 values), the “RLV-associated RT less sensitive to the inhibitor than HIV-associated RT” value turned out to be 10 times. Further, the “mode of action (type of inhibition)” value in [4] is “competitive type of inhibition”.
By CC50 is commonly meant the concentration that lowers cell viability or growth by half. High values mean lower toxicity to the cells, low ones greater toxicity to the cells. Turning to `O=c1ccn([C@H]2C[C@H](F)[C@@H](CO)O2)c(=O)[nH]1` [FddUrd, 2'-3'-dideoxy-3'-fluorouridine], the EC50 in the data set with HIV came out at 275 nM. Besides, half-maximal cytotoxicity in the data set “in vitro” (CC50 at 144 h) was put at 75 µM. Also, the IC50 in [5] was greater than 1 mM; in [6] it was greater than 1 mM; in [7], greater than 9 mM; with H9 immortalized T-cells, greater than 2.5 mM.
